Results as given in US20060069038A1, “Irreversible caspase-3 inhibitors as active site probes” (priority 2003, published 2006).

Assays:
active caspases = assay: [125I]-M808 labeling of active caspases in rat tissue protein extracts; format: binding
Protocol: Tissues (rat liver, kidney, brain, thymus, mouse thymus) were either frozen or processed within 20 minutes of their removal. Rat tissues and cultured cells were homogenized in ice cold cell lysis buffer (50 mM Tris-Cl pH 7.5, 2 mM EDTA, 1% NP-40) supplemented with 5 mM DTT and Complete protease inhibitor cocktail (Roche). Thymi from mice injected with [^125I]-M808 were homogenized in lysis buffer supplemented with 25 μM of M808. Nuclear debris was removed by centrifugation at 13000 rpm for 10 min and the soluble fraction quantitated by Bradford assay (Bio-Rad). Caspase-3 like activity was determined with the fluorogenic substrate Ac-DEVD-AMC as described by Roy et al. (2001) Proc. Nat. Acad. Sci. USA 98: 6132-6137.
The determination of caspase activity by [^125I]-M808 labeling was performed by pre-incubating purified recombinant human caspase-3 with indicated amounts of caspase inhibitor (M791) or vehicle (DMSO), for 1 hour at 25° C. in ICE buffer III (50 mM Hepes-KOH pH 7.0, 0.1% CHAPS, 10% sucrose, 2 mM EDTA), supplemented with 5 mM DTT. [^125I]-M808 was added to a final concentration of 1.25 μM and incubated for 5 min at 25° C. Active caspases in tissue or cell extracts were labeled by incubating 60-80 μg of lysate with [^125I]-M808 for 15 minutes at 25° C. […]

caspase-3 = biological target: T1, caspase-3 (Homo sapiens, UniProt P42574); assay: Caspase-3 western blot on camptothecin-treated Jurkat cell extracts; format: cell-based; conditions: camptothecin-treated Jurkat cells, FIG. 4
T1 construct: endogenous in cells; host or cells: Jurkat cells, apoptosis induced with camptothecin
T1 sequence (P42574 29-175 limits assumed): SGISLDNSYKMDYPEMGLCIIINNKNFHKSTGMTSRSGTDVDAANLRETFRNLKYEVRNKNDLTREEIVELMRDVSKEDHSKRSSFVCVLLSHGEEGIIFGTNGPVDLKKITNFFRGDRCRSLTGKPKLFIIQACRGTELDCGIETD
T1 sequence (P42574 176-277 limits assumed): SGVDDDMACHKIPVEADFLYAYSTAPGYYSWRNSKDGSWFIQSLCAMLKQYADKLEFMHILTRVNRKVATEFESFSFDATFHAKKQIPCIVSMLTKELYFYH
Protocol: Jurkat cells (ATCC # TEB-152) were maintained in RPMI1640 supplemented with 10% FBS, 2 mM L-glutamine and antibiotics (penicillin and streptamycin). Apoptosis was induced on cells (1 million cells/ml) that had been starved for 36 hours in CytoSf4 media (Kemp technologies) by addition of camptothecin (Sigma; 3 μg/ml). NT2 cells (ATCC 3813555) were cultured in DMEM+10% FBS+2 mM L-glutamine and antibiotics. Apoptosis induced with camptothecin (5 μg/ml) in culture media.
Denatured protein extracts in 1× Laemli buffer were resolved through a 18% acrylamide gradient SDS-PAGE gel (Invitrogen) at 30 mA in Tris-Glycine buffer. Samples labeled with [^125I]-M808 were migrated until the dye front reached 0.5 cm above the end of the gel, and acrylamide 1 cm above the dye front was cut out to remove all free [^125I]-M808 and reduce background. The gels were fixed for 45 minutes in a 40% Methanol-10% Acetic acid solution and dried for 90 min at 80° C. before exposure on MS Kodak film with MS intensifying screens. For Western blotting, proteins were transferred onto a […] nitrocellulose membrane (Invitrogen) in Tris-Glycine-20% methanol buffer at 40V for 2 hours. Non-specific protein binding was minimized by incubating the membranes for 1 hour in blocking buffer (5% non-fat milk/TBS/0.1% Tween-20). […] Densitometry was performed using a BioRad instrument and QuantityOne software. […]

Row | SMILES | recognition of active caspases in injured tissue extracts (active caspases; HI neonatal rat brain, infarcted rat heart, septic rat thymi extracts) | effect on [125I]-M808 labeling when added to extract prior to probe (active caspases; granzyme-B treated rat tissue extracts, FIG. 2A lanes 6-9) | effect on caspase-3 processing (western blot) (caspase-3)
1 | COc1ccc(I)cc1CC(=O)N[C@H](C(=O)NC(CC(=O)O)C(=O)CF)C(C)C (stereo partly drawn) [[^125I]-M808, 5-fluoro-3-({N-[(5-iodo-2-methoxyphenyl)acetyl]-L-valyl}amino)-4-oxopentanoic acid] | specifically recognizes active caspases in several types of injured tissues |  | 
2 | COc1ccc(-c2nc(C)no2)cc1CC(=O)N[C@H](C(=O)N[C@@H](CC(=O)O)C(=O)CSCc1ccccc1)C(C)C [Example M791, (3S)-5-(benzylthio)-3-[(N-{[2-methoxy-5-(3-methyl-1,2,4-oxadiazol-5-yl)phenyl]acetyl}-L-valyl)amino]4-oxopentanoic acid] |  | No radiolabeling (lanes 6-8) or strongly reduced labeling (lane 9) | prevents the auto-processing of p20 caspase 3 into p19 and p17
